# Assays:
# [1] = target: SARS-CoV-2 Main Protease (SARS-CoV-2) (UniProt P0DTD1)
# Protocol: Compounds were seeded into assay-ready plates (Greiner 384 low volume, cat 784900) using an Echo 555 acoustic dispenser, and DMSO was back-filled for a uniform concentration in assay plates (DMSO concentration maximum 1%) Screening assays were performed in duplicate at 20µM and 50µM. […] Dose response assays were performed in 12 point dilutions of 2-fold, typically beginning at 100µM. […] Reagents for Mpro assay were dispensed into the assay plate in 10µl volumes for a final volume of 20µL.
# Mpro was pre-incubated for 15 minutes at room temperature with compound before addition of substrate and a further 30 minute incubation. Protease reaction was measured in a BMG Pherastar FS with a 480/520 ex/em filter set. Raw data was mapped and normalized to high (Protease with DMSO) and low (No Protease) controls using Genedata Screener software.
# [2] = target: SARS-CoV-2 Main Protease (SARS-CoV-2) (UniProt P0DTD1); remark: listed apart in the source
smiles,measurement,setting,value
Cc1ncc2c(n1)CCC(NC(=O)NCc1cccc(N3C(=O)NC4(CCCC4)C3=O)c1)C2 (centres undefined),inhibition,[1]; 20.0 µM,-7.81%
same,inhibition,[1]; 50.0 µM,-6.65%
same,relative solubility at 20 uM,,0.99
same,relative solubility at 100 uM,,0.97
same,inhibition,[2]; 50.0 µM,0%
O=S(=O)(Cc1ccccc1)Nc1cnccc1N1CCCC1,inhibition,[1]; 20.0 µM,1.48%
same,inhibition,[1]; 50.0 µM,1.38%
same,relative solubility at 20 uM,,0.99
same,relative solubility at 100 uM,,0.98
same,inhibition,[2]; 50.0 µM,0%
C=CC(=O)N(c1ccc(C(C)(C)C)cc1)C(C(=O)Nc1ccc2c(c1)OCCO2)c1cccnc1 (centres undefined),inhibition,[1]; 20.0 µM,2.83%
same,inhibition,[1]; 50.0 µM,18.1%
same,relative solubility at 20 uM,,0.98
same,relative solubility at 100 uM,,0.75
same,inhibition,[2]; 20.0 µM,7.68%
same,inhibition,[2]; 50.0 µM,30.8%
O=C(Nc1cnccc1Cl)c1cc(Cl)ccc1O,inhibition,[1]; 20.0 µM,66.8%
same,inhibition,[1]; 50.0 µM,75.2%
same,relative solubility at 20 uM,,1
same,relative solubility at 100 uM,,0.98
same,inhibition,[2]; 20.0 µM,15.5%
same,inhibition,[2]; 50.0 µM,65.9%
CNC(=O)OC1CCN(S(=O)(=O)c2ccccc2)CC1,inhibition,[1]; 50.0 µM,-16.3%
same,relative solubility at 20 uM,,1
same,relative solubility at 100 uM,,1
same,inhibition,[2]; 20.0 µM,4.89%
same,inhibition,[2]; 50.0 µM,0%
Cc1cc(CC(=O)Nc2cnccc2C)[nH]n1,inhibition,[1]; 20.0 µM,-4.28%
same,inhibition,[1]; 50.0 µM,0.404%
same,relative solubility at 20 uM,,1
same,relative solubility at 100 uM,,1
same,inhibition,[2]; 50.0 µM,4.87%
C=CC(=O)N(c1ccc(C(C)(C)C)cc1)C(C(=O)Nc1ccc(F)cc1)c1cccnc1 (centres undefined),inhibition,[1]; 20.0 µM,17%
same,inhibition,[1]; 50.0 µM,36%
same,relative solubility at 20 uM,,0.98
same,relative solubility at 100 uM,,0.86
same,inhibition,[2]; 20.0 µM,8.55%
same,inhibition,[2]; 50.0 µM,31.9%
O=C(Cn1cccn1)N1CCN(S(=O)(=O)c2cccc(F)c2)CC1,inhibition,[1]; 20.0 µM,-11.9%
same,inhibition,[1]; 50.0 µM,1%
same,relative solubility at 20 uM,,1
same,relative solubility at 100 uM,,1
same,inhibition,[2]; 20.0 µM,0%
O=C(CC1(c2ccccc2)CCCC1)Nc1cccnc1,inhibition,[1]; 50.0 µM,3.98%
same,relative solubility at 20 uM,,1
same,relative solubility at 100 uM,,1
same,inhibition,[2]; 20.0 µM,0%
same,inhibition,[2]; 50.0 µM,13.9%
COC(=O)C(c1ccccc1Cl)N1CCC2SC(=O)C=C2C1 (centres undefined),inhibition,[1]; 20.0 µM,-46.2%
same,inhibition,[1]; 50.0 µM,-5.13%
same,relative solubility at 20 uM,,0.82
same,relative solubility at 100 uM,,0.81
same,inhibition,[2]; 50.0 µM,11.5%
N#Cc1ncccc1NC(=O)Cc1cccc(Cl)c1,inhibition,[1]; 20.0 µM,-10.2%
same,inhibition,[1]; 50.0 µM,-15.7%
same,relative solubility at 20 uM,,0.99
same,relative solubility at 100 uM,,1
same,inhibition,[2]; 20.0 µM,0%
same,inhibition,[2]; 50.0 µM,0%
C=CC(=O)N(c1ccc(C(C)(C)C)cc1)C(C(=O)NCCCC(=O)OCC)c1cccnc1 (centres undefined),inhibition,[1]; 20.0 µM,6.16%
same,inhibition,[1]; 50.0 µM,30.9%
same,relative solubility at 20 uM,,0.99
same,relative solubility at 100 uM,,0.96
same,inhibition,[2]; 20.0 µM,0%
same,inhibition,[2]; 50.0 µM,14.6%
CN(C(=O)Cc1noc2ccccc12)c1ccc(NC(=O)OC(C)(C)C)cc1,inhibition,[1]; 20.0 µM,-14.5%
same,inhibition,[1]; 50.0 µM,-11.9%
same,relative solubility at 20 uM,,0.98
same,relative solubility at 100 uM,,0.7
same,inhibition,[2]; 20.0 µM,0%
O=S1(=O)CCC(N2CCN(c3nc(-c4cccnc4)nc4ccccc34)CC2)C1 (centres undefined),inhibition,[1]; 20.0 µM,13%
same,inhibition,[1]; 50.0 µM,14.1%
same,relative solubility at 20 uM,,1
same,relative solubility at 100 uM,,0.94
same,inhibition,[2]; 20.0 µM,0%
same,inhibition,[2]; 50.0 µM,0%
N#Cc1ccc(CNC(=O)Cc2c[nH]c3ncccc23)cc1,inhibition,[1]; 20.0 µM,2.44%
same,inhibition,[1]; 50.0 µM,1.71%
same,relative solubility at 20 uM,,1
same,relative solubility at 100 uM,,0.99
same,inhibition,[2]; 20.0 µM,1.12%
C=CC(=O)N(c1ccc(C(C)(C)C)cc1)C(C(=O)Nc1c(C)cccc1CC)c1cccnc1 (centres undefined),inhibition,[1]; 50.0 µM,-3.74%
same,relative solubility at 20 uM,,0.98
same,relative solubility at 100 uM,,0.69
same,inhibition,[2]; 20.0 µM,0%
same,inhibition,[2]; 50.0 µM,0%
CC1CCCC(OCc2cccc(NC(=O)NC(C)c3ccn[nH]3)c2)C1 (centres undefined),inhibition,[1]; 50.0 µM,-40.1%
same,relative solubility at 20 uM,,1
same,relative solubility at 100 uM,,0.85
same,inhibition,[2]; 20.0 µM,0%
same,inhibition,[2]; 50.0 µM,0%
O=C(Nc1cccnc1)Nc1ccc(Cl)s1,inhibition,[1]; 20.0 µM,8.85%
same,inhibition,[1]; 50.0 µM,23.7%
same,relative solubility at 20 uM,,0.99
same,relative solubility at 100 uM,,0.95
same,inhibition,[2]; 20.0 µM,0%
same,inhibition,[2]; 50.0 µM,35.7%
C=CC(=O)N(c1ccc(C(C)(C)CC)cc1)C(C(=O)Nc1cccc(F)c1C)c1cccnc1 (centres undefined),inhibition,[1]; 20.0 µM,16.3%
same,inhibition,[1]; 50.0 µM,31.8%
same,relative solubility at 20 uM,,0.86
same,relative solubility at 100 uM,,0.72
same,inhibition,[2]; 20.0 µM,3.79%
Cc1[nH]ncc1NC(=O)Cc1cccc(Cl)c1,inhibition,[1]; 20.0 µM,3.64%
same,inhibition,[1]; 50.0 µM,6.93%
same,relative solubility at 20 uM,,0.99
same,relative solubility at 100 uM,,1
same,inhibition,[2]; 50.0 µM,52.1%
O=C(NCCNc1cccnn1)c1ccccc1NS(=O)(=O)c1cc(F)ccc1F,inhibition,[1]; 50.0 µM,7.83%
same,relative solubility at 20 uM,,1
same,relative solubility at 100 uM,,1
same,inhibition,[2]; 20.0 µM,0%
same,inhibition,[2]; 50.0 µM,12.1%
COC1CCN(c2ccc(S(N)(=O)=O)cc2)CC1,inhibition,[1]; 20.0 µM,2.98%
same,inhibition,[1]; 50.0 µM,6.82%
same,relative solubility at 20 uM,,1
same,relative solubility at 100 uM,,1
same,inhibition,[2]; 20.0 µM,29.7%
same,inhibition,[2]; 50.0 µM,35.4%
Cc1ccncc1NC(=O)Cc1cccc(C#N)c1,inhibition,[1]; 20.0 µM,33.6%
same,inhibition,[1]; 50.0 µM,58.3%
same,relative solubility at 20 uM,,1
same,relative solubility at 100 uM,,1.01
same,IC50,[2],43.8 µM
same,inhibition,[2]; 20.0 µM,20.5%
same,inhibition,[2]; 50.0 µM,52.7%
C=CC(=O)N(c1ccc(C(C)(C)C)cc1)C(C(=O)Nc1ccc(OC)cc1)c1cccnc1 (centres undefined),inhibition,[1]; 50.0 µM,12%
same,relative solubility at 20 uM,,0.95
same,relative solubility at 100 uM,,0.71
same,inhibition,[2]; 20.0 µM,0%
same,inhibition,[2]; 50.0 µM,0%
COc1ccccc1OCCN(C)C(=O)c1cc(=O)[nH]c2cc(F)ccc12,inhibition,[1]; 20.0 µM,-3.47%
same,inhibition,[1]; 50.0 µM,7.57%
same,relative solubility at 20 uM,,1.01
same,relative solubility at 100 uM,,1
same,inhibition,[2]; 50.0 µM,0%
O=C1C(=O)N(Cc2ccccc2)c2cc(Br)ccc21,inhibition,[1]; 20.0 µM,0.852%
same,inhibition,[1]; 50.0 µM,-0.164%
same,relative solubility at 20 uM,,0.99
same,relative solubility at 100 uM,,0.59
same,inhibition,[2]; 50.0 µM,0%
Cc1noc(C)c1NC(=O)Cc1cccc(Cl)c1Cl,inhibition,[1]; 20.0 µM,-2.3%
same,inhibition,[1]; 50.0 µM,-6.85%
same,relative solubility at 20 uM,,1
same,relative solubility at 100 uM,,1
same,inhibition,[2]; 50.0 µM,0%
O=C(NCc1coc2ccccc12)C1CCc2nnc(-c3ccc(O)cc3)n2C1 (centres undefined),inhibition,[1]; 20.0 µM,-9.94%
same,inhibition,[1]; 50.0 µM,2.5%
same,relative solubility at 20 uM,,0.89
same,relative solubility at 100 uM,,0.94
same,inhibition,[2]; 50.0 µM,55.3%
COc1ccc(C2CC(c3ccccc3)=NN2C(=O)CCl)cc1OC (centres undefined),inhibition,[1]; 20.0 µM,100%
same,inhibition,[1]; 50.0 µM,99.6%
same,relative solubility at 20 uM,,0.99
same,relative solubility at 100 uM,,0.85
same,IC50,[2],0.421 µM
same,inhibition,[2]; 50.0 µM,100%
O=C(NCCNc1ccnc2cc(Cl)ccc12)Nc1ccc(F)cc1,inhibition,[1]; 20.0 µM,20.4%
same,inhibition,[1]; 50.0 µM,29.5%
same,relative solubility at 20 uM,,0.99
same,relative solubility at 100 uM,,0.94
same,inhibition,[2]; 20.0 µM,0%
same,inhibition,[2]; 50.0 µM,0%
O=C(Cn1nnc2ccccc21)N(Cc1ccsc1)c1ccc(-c2ccccc2)cc1,inhibition,[1]; 20.0 µM,30.4%
same,inhibition,[1]; 50.0 µM,39.1%
same,relative solubility at 20 uM,,0.64
same,relative solubility at 100 uM,,0.5
same,inhibition,[2]; 50.0 µM,36.1%
O=C(C1CCCN1C(=O)c1ccccc1)N1CCOCC1 (centres undefined),inhibition,[1]; 50.0 µM,-28%
same,relative solubility at 20 uM,,1
same,relative solubility at 100 uM,,1
same,inhibition,[2]; 20.0 µM,0%
same,inhibition,[2]; 50.0 µM,0%
Cc1coc(NC(=O)Nc2cccnc2)n1,inhibition,[1]; 20.0 µM,2.91%
same,inhibition,[1]; 50.0 µM,8.86%
same,relative solubility at 20 uM,,1
same,relative solubility at 100 uM,,1
same,inhibition,[2]; 20.0 µM,2.76%
same,inhibition,[2]; 50.0 µM,8.52%
O=C(Nc1ccc(Oc2ncccn2)cc1)C(=O)N1CCN(Cc2cccs2)CC1,inhibition,[1]; 20.0 µM,-21%
same,inhibition,[1]; 50.0 µM,-13.8%
same,relative solubility at 20 uM,,1
same,relative solubility at 100 uM,,1
same,inhibition,[2]; 20.0 µM,0%
CC(=O)Nc1ccc(C#N)cc1CN1CCN(C(=O)CCl)CC1,inhibition,[1]; 20.0 µM,20.6%
same,inhibition,[1]; 50.0 µM,43.4%
same,relative solubility at 20 uM,,1
same,relative solubility at 100 uM,,1.01
same,IC50,[2],17.5 µM
same,inhibition,[2]; 20.0 µM,59.2%
C=CC(=O)N1CCCC(N(CC2CCCCC2)C2CCC(O)CC2)C1 (centres undefined),inhibition,[1]; 20.0 µM,-4.47%
same,inhibition,[1]; 50.0 µM,-0.824%
same,relative solubility at 20 uM,,1
same,relative solubility at 100 uM,,1
same,inhibition,[2]; 50.0 µM,0%
Cc1ccncc1Cn1ccccc1=O,inhibition,[1]; 20.0 µM,3.62%
same,inhibition,[1]; 50.0 µM,7.02%
same,relative solubility at 20 uM,,1
same,relative solubility at 100 uM,,1
same,inhibition,[2]; 50.0 µM,6.5%
Cc1nnc(C2Cc3ccccc3CN2C(=O)CCl)o1 (centres undefined),inhibition,[1]; 20.0 µM,16.3%
same,inhibition,[1]; 50.0 µM,41.9%
same,relative solubility at 20 uM,,0.99
same,relative solubility at 100 uM,,0.99
same,inhibition,[2]; 50.0 µM,18.1%

# From the COVID Moonshot data (paper PMC11187573), “Identification of SARS-CoV-2 Mpro inhibitors through deep reinforcement learning for de novo drug design and computational chemistry approaches” (RSC Medicinal Chemistry, 2024)
